# Assay results reported in patent US8436019B2, “Sulfonyl-piperidin-4-yl methylamine amide analogs as GlyT1 inhibitors, methods for making same, and use of same in treating psychiatric disorders” (Vanderbilt University, priority 2009, dated 2013).
# Target: T1, GlyT1 (Homo sapiens, UniProt P48067)
# T1 construct: Human placental choriocarcinoma cells endogenously expressing GlyT1; endogenous in cells; host or cells: JAR cells (human placental choriocarcinoma)
# T1 sequence (P48067 1-706): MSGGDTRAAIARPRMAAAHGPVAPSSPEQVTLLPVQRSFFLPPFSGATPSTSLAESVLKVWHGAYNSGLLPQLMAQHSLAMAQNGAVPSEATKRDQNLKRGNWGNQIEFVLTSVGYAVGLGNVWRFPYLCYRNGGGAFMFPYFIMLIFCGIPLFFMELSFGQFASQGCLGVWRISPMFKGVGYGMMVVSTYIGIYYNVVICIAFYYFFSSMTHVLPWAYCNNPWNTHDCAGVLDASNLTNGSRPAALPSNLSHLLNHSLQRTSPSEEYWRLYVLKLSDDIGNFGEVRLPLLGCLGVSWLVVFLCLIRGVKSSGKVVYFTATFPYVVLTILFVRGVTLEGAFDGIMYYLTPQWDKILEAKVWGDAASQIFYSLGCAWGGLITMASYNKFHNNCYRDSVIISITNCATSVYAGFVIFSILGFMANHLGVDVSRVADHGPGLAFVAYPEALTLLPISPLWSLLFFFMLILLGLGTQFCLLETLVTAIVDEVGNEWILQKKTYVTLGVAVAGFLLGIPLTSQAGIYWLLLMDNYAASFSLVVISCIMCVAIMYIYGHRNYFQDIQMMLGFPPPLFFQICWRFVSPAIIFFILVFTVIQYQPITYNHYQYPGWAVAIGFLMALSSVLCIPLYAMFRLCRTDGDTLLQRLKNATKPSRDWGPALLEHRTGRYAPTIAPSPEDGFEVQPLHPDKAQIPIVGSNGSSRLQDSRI
# Assay: [14C]-glycine uptake inhibition in JAR cells (human placental choriocarcinoma cells endogenously expressing GlyT1)
# Assay type: cell-based
# Conditions: inhibition of specific [14C]-glycine uptake; values given in μM; read-out: Potency
# Procedure: Human placental choriocarcinoma cells endogenously expressing GlyT1 can be cultured using standard conditions. Cells can then be grown at 37° C. in a humidified atmosphere 40-48 hours before the assay. Culture medium can be removed from the culture plate, and cells can be incubated with an amount of TB1A buffer with or without the compounds of the present invention for a sufficient period of time. Then an amount of [^14C]-glycine diluted with TB1A can be added to each well. After incubation the microplates can be sealed and counted. Non-specific uptake of [^14C]-glycine can be determined in the presence of unlabeled glycine. To determine potencies, a range of concentrations of the compounds of the present invention can be added to the cells, followed by the fixed concentration of [^14C]-glycine. The concentration of the present compound that inhibited half of the specific uptake of [^14C]glycine (IC50 value) can be determined from the assay data by non-linear curve fitting.
row,Structure (SMILES),IC50
1,Cn1cnc(S(=O)(=O)N2CCC(C(NC(=O)c3ccccc3C(F)(F)F)c3ccccn3)CC2)c1 (centres unmarked) [Compound 8b],1.6 µM
2,Cn1cnc(S(=O)(=O)N2CCC(C(NC(=O)c3ccccc3Cl)c3ccccc3)CC2)c1 (centres unmarked) [Compound 5a],> 10 µM
3,Cn1cc(S(=O)(=O)N2CCC(C(NC(=O)c3ccc(Cl)cc3Cl)c3ccccc3)CC2)cn1 (centres unmarked) [Compound 3c],2.4 µM
4,"CCCS(=O)(=O)N1CCC(C(NC(=O)c2ccc(Cl)cc2Cl)c2ccccc2)CC1 (single isomer, unassigned) [Compound 3a-1]",> 10 µM
5,Cn1cnc(S(=O)(=O)N2CCC(C(NC(=O)c3c(F)cccc3F)c3ccccn3)CC2)c1 (centres unmarked) [Compound 8c],> 10 µM
6,"Cn1cnc(S(=O)(=O)N2CCC(C(NC(=O)c3ccc(Cl)cc3Cl)c3ccccn3)CC2)c1 (single isomer, unassigned) [Compound 8a-2]",1.6 µM
7,CCCS(=O)(=O)N1CCC(C(NC(=O)c2ccc(Cl)cc2Cl)c2ccccc2)CC1 (racemic) [Compound 3a],1.5 µM
8,"Cn1cnc(S(=O)(=O)N2CCC(C(NC(=O)c3ccc(Cl)cc3Cl)c3ccccc3)CC2)c1 (single isomer, unassigned) [Compound 3b-1]",> 10 µM

# Same assay, conditions: inhibition of specific [14C]-glycine uptake; values in nM; read-out: Potency
row,Structure (SMILES),IC50
1,Cn1cnc(S(=O)(=O)N2CCC(C(NC(=O)c3ccc(Cl)cc3Cl)c3ccccn3)CC2)c1 (racemic) [Compound 8a],0.046 µM
2,"CCCS(=O)(=O)N1CCC(C(NC(=O)c2ccc(Cl)cc2Cl)c2ccccc2)CC1 (single isomer, unassigned) [Compound 3a-2]",0.609 µM
3,Cn1cnc(S(=O)(=O)N2CCC(C(NC(=O)c3ccc(F)cc3F)c3ccccn3)CC2)c1 (centres unmarked) [Compound 8e],0.853 µM
4,CC(NC(=O)c1ccc(Cl)cc1Cl)C1CCN(S(=O)(=O)c2cn(C)cn2)CC1 (centres unmarked) [Compound 9b],0.53 µM
5,"Cn1cnc(S(=O)(=O)N2CCC(C(NC(=O)c3ccc(Cl)cc3Cl)c3ccccn3)CC2)c1 (single isomer, unassigned) [Compound 8a-1]",0.09 µM
6,Cn1cnc(S(=O)(=O)N2CCC(C(NC(=O)c3ccc(Cl)cc3)c3ccccn3)CC2)c1 (centres unmarked) [Compound 8d],0.718 µM
7,Cn1cnc(S(=O)(=O)N2CCC(C(NC(=O)c3ccc(Cl)cc3Cl)c3ccccc3)CC2)c1 (racemic) [Compound 3b],0.201 µM
8,"Cn1cnc(S(=O)(=O)N2CCC(C(NC(=O)c3ccc(Cl)cc3Cl)c3ccccc3)CC2)c1 (single isomer, unassigned) [Compound 3b-2]",0.178 µM
9,Cn1cnc(S(=O)(=O)N2CCC(CNC(=O)c3ccc(Cl)cc3Cl)CC2)c1 [Compound 9a],0.174 µM
